How the values were obtained:
[1] = tested on: NANOG^iCasp9-YFP hPSCs transplanted subcutaneously (teratomas); assay: In vivo teratoma formation after AP20 pre-treatment of hPSCs (bioluminescent imaging); parameters: species or system NOD-SCID Il2rg^−/− mice; details: 5×10^5 hPSCs pre-treated with 1 nM AP20 for 24 hours, subcutaneous transplantation
Method: FIG. 3: Implementation of the NANOG^iCasp9-YFP safety switch. A) Schema depicting how drug AP20187 induces dimerization of Caspase9 in undifferentiated NANOG^iCasp9-YFP hESCs, subsequently triggering cell death (top left). NANOG^iCasp9-YFP hESCs were treated for 24 hours with increasing concentrations of AP20187. AP20187 was withdrawn, and cultures were further grown in mTeSR1 to allow any surviving hESCs to grow; any surviving colonies were counted 1 week later (top right). Alkaline phosphatase staining of whole wells of a 12-well plate after 24-hour treatment with AP20187 (bottom). […] Bioluminescent imaging of mice occurred weekly for 5 weeks with no transplant control (NTC) animals included for relative luminescence normalization. Total flux (photons/sec) was measured for each animal and averaged. […] The percentage of surviving cells was calculated relative to untreated controls. […]
Given that very small numbers of hPSCs (10,000) are sufficient to form teratomas in vivo, we tested the lower bounds of this system to test whether any rare hPSCs survived drug treatment and whether they could form teratomas. […] We used bioluminescent imaging (using the AkaLuciferase system) to determine if micro-teratomas might form, rather than visual inspection of subcutaneous nodules, because bioluminescent imaging is more sensitive and quantitative. […]

[2] = tested on: NANOG mRNA and differentiation marker genes in NANOG^iCasp9-YFP hPSCs and differentiated cell-types; assay: qPCR of NANOG and marker gene expression after AP20187; format: cell-based, human; details: for expression of differentiation markers in differentiated cell-types: AP20187 1 nM, 24 hours
Method: FIG. 9: Efficacy of the NANOG^iCasp9-YFP safety switch (related to FIG. 3). A) Undifferentiated NANOG^iCasp9-YFP hPSCs were treated with AP20187 at the indicated concentrations for 24 hours, and then the percentage of viable remaining cells was subsequently analyzed using FACS analysis (left) and alamar blue staining (right). For the FACS analysis, the percentage of cells shown represents viable cells (i.e., DAPI-negative cells obtained after DAPI staining) that were then gated for YFP+ (i.e., NANOG^+) cells. For the alamar blue analysis, wild-type hPSCs were used as a negative control. […] AP20187 doses equal to or greater than 100 nM may prevent efficient killing of NANOG^iCasp9-YFP hPSCs by considerably downregulating NANOG. Gene expression is depicted normalized to the reference gene YWHAZ (i.e., YWHAZ=1.0). C) Undifferentiated NANOG^iCasp9-YFP hPSCs were treated with the indicated doses of AP20187 for various lengths of time (6, 12, 24, 48, 72 hours) and then alamar blue assay was performed immediately thereafter to quantify the extent of cell death. […] D) Immunofluorescent imaging of NANOG^iCasp9-YFP hESCs in the undifferentiated state and after differentiation into day 6 sclerotome as marked by TWIST1 expression, both without and with treatment of cells with 1 nM AP20187 for 24 hours. […] The following marker genes were assessed in each respective cell-type: sclerotome (bone) progenitors (TWIST1, SOX9, PAX1, PAX9), liver progenitors (SOX17, HNF4A, AFP, TBX3), and forebrain (neural) progenitors (PAX6, FOXG1, OTX2, SIX3). F) Further validation of NANOG^iCasp9-YFP using a simulated mixed cell culture assay. NANOG^iCasp9-YFP undifferentiated hPSCs and hPSC-derived derived sclerotome cells were mixed at a 3:7 ratio, respectively. Mixed cells were treated with AP20187, and 24 hours post-treatment, FACS analysis was done to assess remaining NANOG^iCasp9-YFP hPSCs in culture.
RNA extraction, reverse transcription and quantitative PCR. Undifferentiated or differentiated hPSCs were lysed in […] of RLT Plus Buffer and RNA was extracted using the RNeasy Plus Mini Kit (Qiagen) according to the manufacturer's protocol. 300 ng of total RNA was reverse transcribed into cDNA for qPCR using the High-Capacity cDNA Reverse Transcription Kit (Applied Biosystems) according to the manufacturer's protocol. qPCR was performed in 384-well format as previously described (Loh et al., 2016) on a QuantStudio 5 qPCR machine (Thermo Fisher). Expression of all genes was first normalized to the levels of the reference gene YWHAZ, and then plotted relative to the levels of YWHAZ (i.e., 1.0=equivalent to YWHAZ). The following forward and reverse primer sequences were used to detect the expression of the respective genes: […]

In the case of CC[C@H](C(=O)N1CCCC[C@H]1C(=O)O[C@H](CCc1ccc(OC)c(OC)c1)c1cccc(OCC(=O)NCC(CNC(=O)COc2cccc([C@@H](CCc3ccc(OC)c(OC)c3)OC(=O)[C@@H]3CCCCN3C(=O)[C@@H](CC)c3cc(OC)c(OC)c(OC)c3)c2)CN(C)C)c1)c1cc(OC)c(OC)c(OC)c1 [AP20], the “mice that formed teratomas” value [1] is reported as 0/14, the “expression of differentiation markers in differentiated cell-types” value [2] is reported as “not substantially effected” and the “expression of differentiation markers in differentiated cell-types” value ([2]; listed as AP20187) is reported as “did not substantially impact marker gene expression”. For the same compound, the “doses that may prevent efficient killing by considerably downregulating NANOG” value ([2]; NANOG^iCasp9-YFP hPSCs) was at least 100 nM and the “NANOG mRNA expression in undifferentiated hPSCs” value ([2]; increasing doses of AP20187) was “downregulated NANOG mRNA expression”.

Reference: patent publication US20230085945A1, “ORTHOGONAL SAFETY SWITCHES TO ELIMINATE GENETICALLY ENGINEERED CELLS” (The Board of Trustees of the Leland Stanford Junior …, priority 2020, published 2023)
